Data: PMC11073699, “Odorant receptors for floral- and plant-derived volatiles in the yellow fever mosquito, Aedes aegypti (Diptera: Culicidae)” (PLOS ONE, 2024)
Values joined by “and” are separate entries in the source; they are usually repeats but may differ in a detail not shown here. Identical values can stand only once.

Assays:
Format in all cases: cell-based
AaegOR10 = target: T1, AaegOR10 (Aedes aegypti, UniProt Q177X3); assay: Two-electrode voltage clamp of Xenopus laevis oocytes expressing AaegOR10/Orco (blends, unitary compounds, concentration-response); details: for Raw response, unitary compounds of blend Indoles 1: unitary compounds of Indoles 1, individual oocytes 1-9 (replicates); for Raw Data, concentration-response: first series, oocytes 1-8
T1 sequence (Q177X3 1-375): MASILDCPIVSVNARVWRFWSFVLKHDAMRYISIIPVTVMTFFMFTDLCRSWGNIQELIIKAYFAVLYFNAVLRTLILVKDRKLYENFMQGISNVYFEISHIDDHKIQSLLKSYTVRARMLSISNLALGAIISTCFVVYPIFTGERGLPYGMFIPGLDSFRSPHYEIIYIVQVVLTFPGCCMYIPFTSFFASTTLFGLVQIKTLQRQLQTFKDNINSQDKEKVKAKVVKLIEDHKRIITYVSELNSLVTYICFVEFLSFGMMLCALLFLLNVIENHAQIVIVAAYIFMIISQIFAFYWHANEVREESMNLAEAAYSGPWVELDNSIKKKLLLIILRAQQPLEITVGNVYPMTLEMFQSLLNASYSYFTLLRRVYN
T1 sequence (Q178U6 1-478 partner): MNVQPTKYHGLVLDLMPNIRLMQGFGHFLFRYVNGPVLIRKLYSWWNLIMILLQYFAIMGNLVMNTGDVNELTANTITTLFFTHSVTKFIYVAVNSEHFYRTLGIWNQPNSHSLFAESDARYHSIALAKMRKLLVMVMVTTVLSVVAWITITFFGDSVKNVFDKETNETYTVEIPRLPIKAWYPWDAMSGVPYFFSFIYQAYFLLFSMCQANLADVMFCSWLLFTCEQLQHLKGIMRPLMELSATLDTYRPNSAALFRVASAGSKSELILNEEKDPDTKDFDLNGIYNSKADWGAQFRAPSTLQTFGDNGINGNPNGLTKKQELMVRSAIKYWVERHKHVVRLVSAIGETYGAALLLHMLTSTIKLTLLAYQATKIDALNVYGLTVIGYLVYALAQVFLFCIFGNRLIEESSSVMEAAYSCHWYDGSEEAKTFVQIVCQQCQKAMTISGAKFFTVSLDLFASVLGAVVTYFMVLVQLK
Excerpt: (§1) The coding regions of ten AaegOR genes of interest (S3 File) and AaegOrco were synthesized by Twist Bioscience (San Francisco, CA, USA) and cloned into the pENTR plasmid. The Gateway LR directional cloning system (Invitrogen Corp., Carlsbad, CA, USA) was utilized to subclone AaegOR coding regions into the pSP64t-RFA oocyte expression plasmid. Plasmids were purified using the GeneJet Plasmid Miniprep Kit (ThermoFisher Scientific, Waltham, MA, USA). Purified plasmids were sequenced in both directions to confirm coding regions.
(§2) Chemical compounds (S6 File) used in the deorphanization of AaegORs were purchased from Acros Organics (Morris, NJ, USA), Alfa Aesar (Ward Hill, MA, USA), and ThermoFisher Scientific (Waltham, MA, USA) at the highest purity available. Compounds were stored as 1M stocks in 100% DMSO. Serial dilutions of each compound were prepared in 10% DMSO and blended by chemical class.
(§3) pSP64t-RFA: AaegOR clones were linearized using Xbal, and cRNAs were synthesized using the mMESSAGE mMACHINE ® SP6 kit (Life Technologies, Carlsbad, CA, USA). Xenopus laevis stage V-VII oocytes purchased from Xenopus1 (Dexter, MI, USA) were stored at 18°C in Incubation medium (ND96 96 with 5% dialyzed horse serum, 50μg/mL gentamycin, 100μg/mL streptomycin, 100μg/mL penicillin, and 550μg/mL sodium pyruvate). 30nL of cRNA was injected into multiple oocytes using a microinjection syringe pump (World Precision Instruments, Sarasota, FL, USA) maintained at 18°C for 48–72 hrs. Odorant blends were perfused across individual oocytes for 10–15 seconds, held at a resting membrane potential of -80 mV using an OC-725C oocyte clamp (Warner Instruments, LLC, Hamden, CT, USA). Induced currents were measured indirectly using the two-electrode voltage clamp technique (TEVC). Following each stimulus, currents were allowed to return to baseline before further stimulation. Data was captured using the Digidata 1550 B digitizer and PClamp10 software (Molecular Devices, San Jose, CA, USA). Concentration-response curves were generated by perfusing unitary odorants over oocytes at increasing concentrations from [10^-3M] to [10^-9M]. Data were analyzed using GraphPad Prism 8 (GraphPad Software Inc., La Jolla, CA, USA). At least two biological replicates were conducted at each concentration and for each compound. Data for at least seven oocytes responding to each compound was analyzed (S7 File).

AaegOR13 = target: T2, AaegOR13 (Aedes aegypti, UniProt Q16Z13); assay: Two-electrode voltage clamp of Xenopus laevis oocytes expressing AaegOR13/Orco (blends, unitary compounds, concentration-response); details: for Raw data (Responses in nA), unitary compounds of Indoles 1, Alcohols 1, Alcohols 3: individual oocytes 1-7
T2 sequence (Q16Z13 1-389): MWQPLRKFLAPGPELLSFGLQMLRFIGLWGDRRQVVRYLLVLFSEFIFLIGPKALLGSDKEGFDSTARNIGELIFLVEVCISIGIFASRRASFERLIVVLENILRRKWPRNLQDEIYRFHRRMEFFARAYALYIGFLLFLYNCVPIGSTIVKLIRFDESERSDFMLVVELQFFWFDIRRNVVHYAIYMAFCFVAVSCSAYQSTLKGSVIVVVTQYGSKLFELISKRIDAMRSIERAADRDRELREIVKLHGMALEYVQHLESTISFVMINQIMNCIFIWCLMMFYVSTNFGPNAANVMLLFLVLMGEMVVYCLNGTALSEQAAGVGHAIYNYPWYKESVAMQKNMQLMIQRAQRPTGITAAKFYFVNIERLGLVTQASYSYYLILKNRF
T2 sequence (Q178U6 1-478 partner): T1 sequence (Q178U6 1-478 partner)
How it was run: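 Xenopus oocytes injected with cRNA for AaegOR plus Orco, kept 48–72 hrs at 18°C, clamped at -80 mV by TEVC. Odorant blends or single compounds (10% DMSO dilutions) perfused 10–15 s; concentration-response from 10^-3M to 10^-9M, ≥7 responding oocytes, ≥2 biological replicates.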

AaegOR55 = target: T3, AaegOR55 (Aedes aegypti, UniProt Q16T12); assay: Two-electrode voltage clamp of Xenopus laevis oocytes expressing AaegOR55/Orco (blends, unitary compounds, concentration-response); details: for Raw Data (Responses in nA), Indoles 1 unitary compounds / Raw Data (Responses in nA), concentration-response: AaegOR55; for Raw Data (Responses in nA), Indoles 1 unitary compounds: compounds of blend Indoles 1, individual oocytes (Oocyte 1-7); for Raw Data (Responses in nA), concentration-response: individual oocytes (Oocyte 1-9)
T3 sequence (Q16T12 10-392): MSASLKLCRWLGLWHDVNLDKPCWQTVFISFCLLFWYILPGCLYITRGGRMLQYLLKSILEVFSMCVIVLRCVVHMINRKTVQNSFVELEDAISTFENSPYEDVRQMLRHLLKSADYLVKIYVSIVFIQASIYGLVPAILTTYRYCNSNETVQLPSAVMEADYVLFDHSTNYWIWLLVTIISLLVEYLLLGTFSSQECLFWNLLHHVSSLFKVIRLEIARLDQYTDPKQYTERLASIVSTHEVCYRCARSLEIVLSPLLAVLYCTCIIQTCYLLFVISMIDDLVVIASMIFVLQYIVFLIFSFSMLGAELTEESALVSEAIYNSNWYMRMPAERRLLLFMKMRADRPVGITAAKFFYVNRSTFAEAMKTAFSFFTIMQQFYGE
T3 sequence (Q178U6 1-478 partner): T1 sequence (Q178U6 1-478 partner)
Excerpt: as §1, §2, §3

SMILES | Raw response, unitary compounds of blend Indoles 1 (AaegOR10) | Raw data (Responses in nA), unitary compounds of Indoles 1, Alcohols 1, Alcohols 3 (AaegOR13) | Raw Data (Responses in nA), Indoles 1 unitary compounds (AaegOR55) | also measured
Cc1[nH]c2ccccc2c1C [2,3-dimethylindole] | 70.0 nA and 20.0 nA and 0.0 nA (4×) and 10.0 nA (2×) and 30.0 nA | 0.0 nA (6×) and 5.0 nA | 235.0 nA and 140.0 nA and 250.0 nA and 300.0 nA and 185.0 nA and 305.0 nA and 295.0 nA | EC50 (AaegOR55; AaegOR55/Orco expressing oocytes, TEVC, concentration-response of normalized current): 8650 nM; Raw Data (Responses in nA), concentration-response (AaegOR55; concentration 1e-7 M): 10.0 nA (6×) and 15.0 nA (2×) and 5.0 nA; Raw Data (Responses in nA), concentration-response (AaegOR55; concentration 5e-7 M): 30.0 nA (4×) and 20.0 nA (2×) and 15.0 nA and 40.0 nA and 45.0 nA; Raw Data (Responses in nA), concentration-response (AaegOR55; concentration 1e-6 M): 20.0 nA (2×) and 10.0 nA and 30.0 nA (2×) and 15.0 nA and 35.0 nA and 40.0 nA and 55.0 nA; Raw Data (Responses in nA), concentration-response (AaegOR55; concentration 5e-6 M): 70.0 nA and 25.0 nA and 80.0 nA and 60.0 nA (2×) and 110.0 nA and 120.0 nA and 190.0 nA (2×); Raw Data (Responses in nA), concentration-response (AaegOR55; concentration 1e-5 M): 90.0 nA (2×) and 25.0 nA and 120.0 nA and 80.0 nA and 140.0 nA and 170.0 nA and 260.0 nA (2×); Raw Data (Responses in nA), concentration-response (AaegOR55; concentration 5e-5 M): 165.0 nA and 40.0 nA and 210.0 nA and 140.0 nA and 170.0 nA and 220.0 nA and 240.0 nA and 430.0 nA and 380.0 nA; Raw Data (Responses in nA), concentration-response (AaegOR55; concentration 0.0001 M): 160.0 nA and 55.0 nA and 210.0 nA (3×) and 140.0 nA and 180.0 nA and 440.0 nA and 380.0 nA
Cc1cc2ccccc2[nH]1 [2-Methylindole] | 0.0 nA | 0.0 nA (6×) and 5.0 nA | 0.0 nA | –
Cc1c[nH]c2ccccc12 [3-methylindole] | 270.0 nA and 500.0 nA and 120.0 nA and 40.0 nA and 80.0 nA and 320.0 nA and 70.0 nA and 180.0 nA and 30.0 nA | 0.0 nA and 5.0 nA (5×) and 10.0 nA | 160.0 nA and 85.0 nA and 170.0 nA and 235.0 nA and 120.0 nA and 225.0 nA and 245.0 nA | Raw Data, concentration-response (AaegOR10; 5e-7 M): 90.0 nA; Raw Data, concentration-response (AaegOR10; 1e-5 M): 100.0 nA; EC50 (AaegOR10; AaegOR10/Orco expressing oocytes, TEVC, concentration-response of normalized current): 160 nM; response of AaegOR55 to unitary compounds (AaegOR55; AaegOR55/Orco expressing oocytes, TEVC, individual compounds): responded
CCc1ccc(O)cc1 [4-ethylphenol, 4-Ethylphenol] | 0.0 nA | 70.0 nA and 740.0 nA and 340.0 nA and 310.0 nA and 300.0 nA and 275.0 nA and 250.0 nA | 5.0 nA (5×) and 0.0 nA (2×) | EC50 (AaegOR13; AaegOR13/Orco expressing oocytes, TEVC, concentration-response of normalized current): ~170 nM and 170 nM
O=Cc1c[nH]c2ccccc12 [indole-3-carboxaldehyde] | 80.0 nA and 30.0 nA and 100.0 nA and 20.0 nA (2×) and 70.0 nA and 0.0 nA (3×) | – | 50.0 nA and 25.0 nA (2×) and 40.0 nA and 20.0 nA and 45.0 nA and 35.0 nA | –
c1ccc2[nH]ccc2c1 [indole] | 0.0 nA (6×) and 80.0 nA and 10.0 nA (2×) | 0.0 nA (3×) and 5.0 nA (4×) | 40.0 nA (2×) and 15.0 nA and 30.0 nA (2×) and 25.0 nA (2×) | –
COC(=O)c1c[nH]c2ccccc12 [methyl indole-3-carboxylate] | 0.0 nA (6×) and 10.0 nA (2×) and 30.0 nA | 0.0 nA and 20.0 nA and 15.0 nA (2×) and 10.0 nA (3×) | – | –
